Assay results taken from PMC7136958, “Targeting the pregnane X receptor using microbial metabolite mimicry” (EMBO Molecular Medicine, 2020).
Read-outs that look alike come from different tables or passages of the source.

Assays:
[1] = target: T1, Human constitutive androstane receptor (hCAR) (Homo sapiens, UniProt Q14994); assay: hCAR reporter activity in HEK293T cells; format: cell-based
T1 construct: expressed in transfected cells; host or cells: HEK293T
Description: Reverse transfection assays were performed in Caco‐2 cells as previously published with the following modifications (Kublbeck et al, 2015). 3.0 × 10^4 cells per well were transfected using pSG5‐PXR plasmid (300 ng/well), β‐Gal expression plasmid (600 ng/well), and CYP3A4‐luciferase reporter (500 ng/well) (Huang et al, 2007). After 24‐h transfection using Lipofectamine® LTX ([…] of plasmid), cells were exposed to FKK5 for 24 h. Cell lysates were prepared for β‐Gal and luciferase assays as previously published (Huang et al, 2007). The data are expressed as mean ± SD RLU (relative light units from luciferase assay) normalized to β‐Gal activity in the same well. Differences were tested using 2‐way ANOVA with Tukey's multiple comparison test, and P < 0.05 was considered significant (*). Standard transient transfection assays (PXR, CAR) in HEK293T cells were performed as previously published (Huang et al, 2007).

[2] = tested on: CYP1A1, CYP3A4, MDR1 mRNA in HepaRG cells
Description: Caco‐2 cells were purchased from ATCC, and authenticity was validated by multiplexed STR DNA (short tandem repeat deoxyribonucleic acid) profiling performed by Genetica. […] Cells were maintained at 37°C and 5% CO2 in a humidified incubator. […] Three HepaRG™‐derived cell lines, including 5F Clone control cells, and cells with targeted functional PXR and AhR gene knockouts, PXR‐KO and AhR‐KO, respectively, were purchased from Sigma (Czech Republic). Cells were handled according to the manufacturer's protocol. Human hepatocytes were purchased from Biopredic International (France) and Triangle Research Labs, LLC, Lonza (USA). Cultures were maintained in serum‐free medium at 37°C and 5% CO2 in a humidified incubator.
The measurements were performed in triplicate.

hPXR-LBD (PXR.1) = target: T2, hPXR-LBD (PXR.1) (Homo sapiens, UniProt O75469); assay: Isothermal titration calorimetry with His-tagged hPXR-LBD; format: binding; settings: 37°C; for Kd: single-site model
T2 construct: made in house; host or cells: E. coli BL21-Gold
T2 sequence (O75469 146-433 limits assumed): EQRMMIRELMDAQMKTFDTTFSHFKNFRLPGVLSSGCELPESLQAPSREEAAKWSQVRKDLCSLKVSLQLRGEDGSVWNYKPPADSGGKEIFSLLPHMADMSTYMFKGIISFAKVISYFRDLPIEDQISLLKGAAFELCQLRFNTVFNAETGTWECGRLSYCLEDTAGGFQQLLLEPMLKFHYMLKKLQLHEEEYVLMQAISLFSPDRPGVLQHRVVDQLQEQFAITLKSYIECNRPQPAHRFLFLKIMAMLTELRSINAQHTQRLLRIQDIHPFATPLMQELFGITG
Description: The cloning, expression, and purification of His‐tagged PXR‐LBD were performed as previously published (Wallace et al, 2013) with the following modifications: For protein expression, Luria–Bertani (LB) media were inoculated with a saturated culture of BL21‐Gold cells transformed with HIS‐LIC plasmid containing the PXR‐LBD construct. The mixture was allowed to shake at 37°C until the cells reached an OD600 ~ 0.6, and then, the temperature was reduced to 18°C, at which time IPTG was added (final concentration of 0.1 mM) to induce protein expression. For purification, the His‐tag was not removed, and the uncleaved protein was loaded onto the gel filtration column with buffer containing HEPES (4‐(2‐hydroxyethyl)‐1‐piperazineethanesulfonic acid) (25 mM, pH 7.5) and NaCl (150 mM).
Isothermal titration calorimetry (ITC) was carried out using a VP‐ITC microcalorimeter from MicroCal⁄Malvern Instruments (Northampton, MA, USA). […] In all the experiments, the ligand solution was injected in 10 μl aliquots into the calorimetric cell containing PXR‐LBD (ligand‐binding domain) at a concentration of 3–6 μM. […] The experiments were carried out at 37°C. The heat evolved upon each injection of the ligands was obtained from the integral of the calorimetric signal. The heat associated with binding to PXR‐LBD in the cell was obtained by subtracting the heat of dilution from the heat of reaction.

NF-κB = assay: TNF-α-induced NF-κB reporter assay in LS180 cells with or without PXR co-transfection; format: cell-based, human; settings: for TNF-α-induced NF-κB reporter activity: 0.1 to 25 μM, PXR-untransfected and PXR-transfected cells
Description: NF‐κB reporter assays were performed using LS180 cells. […] Thereafter, cells were lysed, and Nano luciferase activity was measured using a Tecan Infinite M200 Pro plate reader (Schoeller Instruments, Czech Republic).

[3] = tested on: PXR target genes in LS174T PXR-KO cells; assay: PXR target gene mRNA in LS174T PXR-KO cells; format: cell-based, human
Description: Figure EV5 LS174T PXR‐knockout (KO) cells are not responsive to PXR ligands • Expression of CYP1A1 and CYP3A4 mRNA in PXR‐knockout and wild‐type LS174T. […] Experiment was performed in 4 independent cell passages (6th, 8th, 10th, and 12th). The mRNA expression of CYP1A1 and CYP3A4 mRNA was determined by RT–PCR, and data were normalized to GAPDH mRNA level. (a) CYP1A1 mRNA. (b) CYP3A4 mRNA. Data are expressed as mean ± SD. • Immunoblot for PXR protein expression in PXR wild‐type and knockout (KO) cells. Experiment was performed in nine independent cell passages (P). • Fold mRNA expression of PXR target genes. Each tissue PCR was repeated in quadruplicate. The expression was normalized to internal control, GAPDH. The entire experiment was repeated n > 2 for reproducibility. The data shown are one representative experiment. Source data are available online for this figure.
Briefly, cells were first tested negative for mycoplasma.

[4] = NFkB transfected LS180 cells, 8th pass, EXP1, 0,1 uM + TNFa 5 ng/ml
[5] = NFkB transfected LS180 cells, 8th pass, EXP1, 1 uM + TNFa 5 ng/ml
[6] = NFkB transfected LS180 cells, 8th pass, EXP1, 10 uM + TNFa 5 ng/ml
[7] = NFkB transfected LS180 cells, 8th pass, EXP1, 25 uM + TNFa 5 ng/ml
[8] = NFkB transfected LS180 cells, 13th pass, EXP2, 0,1 uM + TNFa 5 ng/ml
[9] = NFkB transfected LS180 cells, 13th pass, EXP2, 1 uM + TNFa 5 ng/ml
[10] = NFkB transfected LS180 cells, 13th pass, EXP2, 10 uM + TNFa 5 ng/ml
[11] = NFkB transfected LS180 cells, 13th pass, EXP2, 25 uM + TNFa 5 ng/ml
[12] = NFkB+PXR transfected LS180 cells, 8th pass, EXP1, 0,1 uM + TNFa 5 ng/ml
[13] = NFkB+PXR transfected LS180 cells, 8th pass, EXP1, 1 uM + TNFa 5 ng/ml
[14] = NFkB+PXR transfected LS180 cells, 8th pass, EXP1, 10 uM + TNFa 5 ng/ml
[15] = NFkB+PXR transfected LS180 cells, 8th pass, EXP1, 25 uM + TNFa 5 ng/ml
[16] = NFkB+PXR transfected LS180 cells, 13th pass, EXP2, 0,1 uM + TNFa 5 ng/ml
[17] = NFkB+PXR transfected LS180 cells, 13th pass, EXP2, 1 uM + TNFa 5 ng/ml
[18] = NFkB+PXR transfected LS180 cells, 13th pass, EXP2, 10 uM + TNFa 5 ng/ml
[19] = NFkB+PXR transfected LS180 cells, 13th pass, EXP2, 25 uM + TNFa 5 ng/ml

T1 sequence (Q14994 whole entry): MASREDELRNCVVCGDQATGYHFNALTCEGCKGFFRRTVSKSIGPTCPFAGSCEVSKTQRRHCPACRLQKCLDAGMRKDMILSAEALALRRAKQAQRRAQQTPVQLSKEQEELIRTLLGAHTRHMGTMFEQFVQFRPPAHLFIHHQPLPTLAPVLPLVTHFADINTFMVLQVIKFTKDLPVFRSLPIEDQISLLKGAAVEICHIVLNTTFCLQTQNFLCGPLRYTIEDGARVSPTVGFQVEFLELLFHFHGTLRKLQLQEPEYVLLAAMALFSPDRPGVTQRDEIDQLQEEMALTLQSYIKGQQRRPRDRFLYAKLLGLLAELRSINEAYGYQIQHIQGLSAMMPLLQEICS

SMILES: O=C(c1ccncc1)c1cc2ccccc2n1S(=O)(=O)c1ccccc1 [FKK5, (1-(phenylsulfonyl)-1H-indol-2-yl)(pyridin-4-yl)methanone]
- CAR activity induction [1]: did not induce
- CYP1A1 mRNA induction [2]: did not induce
- CYP3A4 mRNA induction [2]: HepaRG™ AhR‐KO cells
- CYP1A1 (1A1) mRNA, fold to C ([2]; human, 24 h): 0.81 fold
- CYP3A4 (3A4) mRNA, fold to C ([2]; human, 24 h): 1.92 fold
- MDR1 mRNA fold to C ([2]; human, 24 h): 1.03 fold
- MDR-1 mRNA fold to C ([2]; human, 24 h): 1.25 fold
- MDR-1 mRNA, fold to C ([2]; human, 24 h): 0.96 fold
- ΔH (enthalpy of binding) (hPXR-LBD (PXR.1)): -2.5 kcal/mol
- −TΔS (hPXR-LBD (PXR.1)): -6.4 kcal/mol
- Kd (hPXR-LBD (PXR.1)): 0.3 µM
- TNF-α-induced NF-κB reporter activity (NF-κB): significantly reduced
- NFkB reporter luminescence, aver (NF-κB; [4]): 154648.3
- NFkB reporter, % max (NF-κB; [4]): 100.0%
- NFkB reporter luminescence, aver (NF-κB; [5]): 174112.0
- NFkB reporter, % max (NF-κB; [5]): 112.6%
- NFkB reporter luminescence, aver (NF-κB; [6]): 177548.0
- NFkB reporter, % max (NF-κB; [6]): 114.8%
- NFkB reporter luminescence, aver (NF-κB; [7]): 128563.8
- NFkB reporter, % max (NF-κB; [7]): 83.1%
- NFkB reporter luminescence, aver (NF-κB; [8]): 96416.5
- NFkB reporter, % max (NF-κB; [8]): 100.0%
- NFkB reporter luminescence, aver (NF-κB; [9]): 100061.8
- NFkB reporter, % max (NF-κB; [9]): 103.8%
- NFkB reporter luminescence, aver (NF-κB; [10]): 94755.5
- NFkB reporter, % max (NF-κB; [10]): 98.3%
- NFkB reporter luminescence, aver (NF-κB; [11]): 73575.7
- NFkB reporter, % max (NF-κB; [11]): 76.3%
- NFkB reporter luminescence, aver (NF-κB; [12]): 119827.8
- NFkB reporter, % max (NF-κB; [12]): 100.0%
- NFkB reporter luminescence, aver (NF-κB; [13]): 119180.5
- NFkB reporter, % max (NF-κB; [13]): 99.5%
- NFkB reporter luminescence, aver (NF-κB; [14]): 105570.7
- NFkB reporter, % max (NF-κB; [14]): 88.1%
- NFkB reporter luminescence, aver (NF-κB; [15]): 87454.8
- NFkB reporter, % max (NF-κB; [15]): 73.0%
- NFkB reporter luminescence, aver (NF-κB; [16]): 54048.0
- NFkB reporter, % max (NF-κB; [16]): 100.0%
- NFkB reporter luminescence, aver (NF-κB; [17]): 44601.5
- NFkB reporter, % max (NF-κB; [17]): 82.5%
- NFkB reporter luminescence, aver (NF-κB; [18]): 31230.0
- NFkB reporter, % max (NF-κB; [18]): 57.8%
- NFkB reporter luminescence, aver (NF-κB; [19]): 30160.0
- NFkB reporter, % max (NF-κB; [19]): 55.8%
- PXR target gene induction [3]: did not induce

SMILES: C#CCC(O)(c1ccncc1)c1cc2ccccc2n1S(=O)(=O)c1ccccc1 (stereo not drawn) [FKK6]
- CAR activity induction [1]: did not induce
- CYP1A1 mRNA induction [2]: did not induce
- MDR-1 mRNA fold to C ([2]; HepaRG AHR-KO, normalised to GAPDH, fold vs UT): 1.31 fold
- CYP1A1 (1A1) mRNA, fold to C ([2]; human, 24 h): 8.33 fold
- CYP3A4 (3A4) mRNA, fold to C ([2]; human, 24 h): 2.91 fold
- CYP3A4 mRNA induction ([2]; human, 24 h): only in HepaRG™ control 5F clone
- MDR1 mRNA fold to C ([2]; human, 24 h): 1.04 fold
- MDR-1 mRNA, fold to C ([2]; human, 24 h): 0.98 fold
- ΔH (enthalpy of binding) (hPXR-LBD (PXR.1)): -3.5 kcal/mol
- −TΔS (hPXR-LBD (PXR.1)): -4.1 kcal/mol
- Kd (hPXR-LBD (PXR.1)): 2.7 µM
- TNF-α-induced NF-κB reporter activity (NF-κB): significantly reduced
- NFkB reporter luminescence, aver (NF-κB; [4]): 151491.7
- NFkB reporter, % max (NF-κB; [4]): 100.0%
- NFkB reporter luminescence, aver (NF-κB; [5]): 188054.3
- NFkB reporter, % max (NF-κB; [5]): 124.1%
- NFkB reporter luminescence, aver (NF-κB; [6]): 206680.7
- NFkB reporter, % max (NF-κB; [6]): 136.4%
- NFkB reporter luminescence, aver (NF-κB; [7]): 153657.3
- NFkB reporter, % max (NF-κB; [7]): 101.4%
- NFkB reporter luminescence, aver (NF-κB; [8]): 110498.5
- NFkB reporter, % max (NF-κB; [8]): 100.0%
- NFkB reporter luminescence, aver (NF-κB; [9]): 114693.5
- NFkB reporter, % max (NF-κB; [9]): 103.8%
- NFkB reporter luminescence, aver (NF-κB; [10]): 113662.5
- NFkB reporter, % max (NF-κB; [10]): 102.9%
- NFkB reporter luminescence, aver (NF-κB; [11]): 88975.5
- NFkB reporter, % max (NF-κB; [11]): 80.5%
- NFkB reporter luminescence, aver (NF-κB; [12]): 128584.0
- NFkB reporter, % max (NF-κB; [12]): 100.0%
- NFkB reporter luminescence, aver (NF-κB; [13]): 112418.0
- NFkB reporter, % max (NF-κB; [13]): 87.4%
- NFkB reporter luminescence, aver (NF-κB; [14]): 100484.8
- NFkB reporter, % max (NF-κB; [14]): 78.1%
- NFkB reporter luminescence, aver (NF-κB; [15]): 94342.8
- NFkB reporter, % max (NF-κB; [15]): 73.4%
- NFkB reporter luminescence, aver (NF-κB; [16]): 50028.3
- NFkB reporter, % max (NF-κB; [16]): 100.0%
- NFkB reporter luminescence, aver (NF-κB; [17]): 38521.5
- NFkB reporter, % max (NF-κB; [17]): 77.0%
- NFkB reporter luminescence, aver (NF-κB; [18]): 24979.3
- NFkB reporter, % max (NF-κB; [18]): 49.9%
- NFkB reporter luminescence, aver (NF-κB; [19]): 26644.5
- NFkB reporter, % max (NF-κB; [19]): 53.3%
- PXR target gene induction [3]: did not induce
